Reference: patent US20050215646A1, “Methods for treating multiple sclerosis and pharmaceutical compositions therefor” (Renovis, Inc., priority 2004, published 2005)

Columns and labels:
CCR receptors = experiment: Migration of CHO-K1 cells expressing CCR receptors; type: cell-based, human; details: 2 hours, FIG. 4
Protocol: (§1) CHO-K1 cells were obtained from American Type Culture Collection (CCL-61) and cultured in Ham's F12 media supplemented with 10% heat inactivated FBS and 100 μg/ml penicillin/streptomycin. cDNA fragments encompassing chemokine receptor coding regions were obtained from cDNAs synthesized from HL-60 cells and/or human peripheral blood mononuclear cells by the polymerase chain reaction. Expression constructs of chemokine receptors were generated by cloning PCR fragments into expression vector pEF6/V5-TOPO (K9610-20, Invitrogen). Transient transfections were carried out with Fugene 6 transfection reagent (1814443, Roche Applied Science) according to the manufacturer's instructions.
(§2) The CHO-chemokine receptor cells were used in migration assays 36 hours following transfection. In vitro migration assays were performed using a Neuroprobe Blindwell migration apparatus (AA12, Neuro Probe, Inc./16008 Industrial Drive, Gaithersburg, Md. 20877) according to the manufacturer's instructions with slight modifications. […]
(§3) Following the migration assays, migrated cells that had adhered to the underside of the filter were quantitated according to the manufacturer's instructions. […] Stained filtered were mounted onto microscope slides and migrated cells in each well were manually counted under 40× magnification.

CXCR3 = molecular target: T1, CXCR3 (Homo sapiens, UniProt P49682); experiment: Migration of CHO-K1 cells expressing CXCR3; type: cell-based; set-up: cDNA fragments encompassing chemokine receptor coding regions; expressed in transfected cells; host or cells: CHO-K1 (ATCC CCL-61), transient transfection; details: CHO-K1 cells expressing CXCR3, 2 hours; FIG. 3
T1 sequence (P49682 1-368): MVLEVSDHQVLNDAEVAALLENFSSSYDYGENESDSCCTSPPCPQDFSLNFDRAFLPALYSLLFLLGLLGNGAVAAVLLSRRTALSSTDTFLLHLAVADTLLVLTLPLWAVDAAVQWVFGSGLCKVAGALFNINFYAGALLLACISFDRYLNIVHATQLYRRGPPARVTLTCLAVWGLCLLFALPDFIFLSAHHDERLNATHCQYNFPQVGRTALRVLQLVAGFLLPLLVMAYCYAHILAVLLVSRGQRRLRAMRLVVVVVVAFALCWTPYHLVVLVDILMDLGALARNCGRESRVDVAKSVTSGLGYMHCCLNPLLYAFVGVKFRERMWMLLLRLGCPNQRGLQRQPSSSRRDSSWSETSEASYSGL
Protocol: as §1, §2, §3

CXCR6 = molecular target: T2, CXCR6 (Homo sapiens, UniProt O00574); experiment: Migration of CHO-K1 cells expressing CXCR6; type: cell-based; details: CHO-K1 cells expressing CXCR6, 2 hours; FIG. 3
T2 construct: cDNA fragments encompassing chemokine receptor coding regions; expressed in transfected cells; host or cells: CHO-K1 (ATCC CCL-61), transient transfection
T2 sequence (O00574 whole entry, the tested form may be a part): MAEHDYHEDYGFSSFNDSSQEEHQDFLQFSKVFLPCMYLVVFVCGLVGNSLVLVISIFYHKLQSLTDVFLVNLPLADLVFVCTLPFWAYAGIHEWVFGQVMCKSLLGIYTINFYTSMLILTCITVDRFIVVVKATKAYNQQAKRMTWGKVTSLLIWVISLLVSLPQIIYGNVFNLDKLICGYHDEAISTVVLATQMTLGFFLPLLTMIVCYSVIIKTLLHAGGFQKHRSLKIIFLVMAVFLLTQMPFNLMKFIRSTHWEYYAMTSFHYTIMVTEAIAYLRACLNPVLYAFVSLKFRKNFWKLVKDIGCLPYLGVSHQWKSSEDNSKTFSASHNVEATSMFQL
Protocol: as §1, §2, §3

CXCR4 = CXCR4 (Homo sapiens, UniProt P61073); experiment: Migration of CHO-K1 cells expressing CXCR4; type: cell-based; set-up: cDNA fragments encompassing chemokine receptor coding regions; expressed in transfected cells; host or cells: CHO-K1 (ATCC CCL-61), transient transfection; details: CHO-K1 cells expressing CXCR4, 2 hours; FIG. 3
CXCR4, sequence (P61073 whole entry, the tested form may be a part): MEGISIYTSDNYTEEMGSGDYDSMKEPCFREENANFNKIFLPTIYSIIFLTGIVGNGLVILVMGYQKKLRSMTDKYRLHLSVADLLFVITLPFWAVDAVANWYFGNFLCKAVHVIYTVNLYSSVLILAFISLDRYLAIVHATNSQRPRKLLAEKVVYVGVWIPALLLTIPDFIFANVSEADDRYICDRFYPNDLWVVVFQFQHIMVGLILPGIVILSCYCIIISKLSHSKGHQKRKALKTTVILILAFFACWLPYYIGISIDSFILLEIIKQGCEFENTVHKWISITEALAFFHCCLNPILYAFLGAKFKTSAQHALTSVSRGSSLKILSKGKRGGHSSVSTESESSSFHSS
Protocol: as §1, §2, §3

[1] = test system: differentiated HL-60 cells; experiment: Inhibition of chemoattractant-mediated chemotaxis of differentiated HL-60 cells after pretreatment; type: cell-based; details: cells pre-incubated with compound 30 minutes at 37° C, migration 2 hours
Protocol: Compound 1 was prepared according to the methods of the invention and tested as described below. Briefly, cells were pre-incubated with Compound 1, and then assayed for chemokine-mediated cell migration.
In vitro cell migration assays were performed using differentiated HL-60 cells. HL-60 cells were differentiated by adding 1.4% DMSO to RPMI-1640 media supplemented with 10% FBS and 100 μg/ml penicillin/streptomycin. Cells on the sixth day following differentiation were used for in vitro migration assays.
In vitro migration assays were performed using a Neuroprobe migration apparatus (MBB96, Neuro Probe, Inc., Gaithersburg, Md. 20877) according to the manufacturer's protocol with slight modifications. Briefly, about 370 μl of diluted chemokine or control was added to a 96-well fibronectin-coated, black-walled Packard plate. Chemoattractants included 100 nM formyl-methionyl-leucyl-phenylalanine (fMLP), 30 ng/ml chemokine Stromal Cell-Derived Factor-1 (SDF-1), 300 ng/ml chemokine IL-8. Negative control included migration media alone. The plate was placed into the migration apparatus, an 8 μm framed filter was carefully placed on top of the plate, and the apparatus was screwed down. […]
After staining, the cells were washed with 200 μl phosphate-buffered saline. Cell number in each well was quantitated using ImageXpress (Axon Instruments) or a fluorescent plate reader.

induction of cell migration (CXCR3): induced migration
induction of cell migration (CXCR6): induced migration
induction of cell migration (CXCR4): induced migration
SMILES: CC(C)(C)c1cc(/C=[N+](\[O-])C(C)(C)C)cc(C(C)(C)C)c1O [Compound 1, α-(4-hydroxy-3,5-di-tert-butylphenyl)-N-tert-butylnitrone]
induction of cell migration (CCR receptors): did not induce migration
chemotaxis of the cells toward CXC chemokines such as IL-8 and SDF-1 ([1]; FIG. 1): inhibits
chemotaxis of the cells toward fMLP and CCR chemokines such as Rantes and MIP-1 ([1]; FIG. 2): inhibits
